Experiments:
Assay type in all cases: functional, organism-based
Plasmodium falciparum [1] = assay: Antimalarial activity against chloroquine-sensitive Plasmodium falciparum NF54 infected in RBC after 72 hrs by [3H]hypoxanthine incorporation assay in presence of 0.5 % albumax
Plasmodium falciparum [2] = assay: Antimalarial activity against chloroquine-sensitive Plasmodium falciparum NF54 infected in RBC after 72 hrs by [3H]hypoxanthine incorporation assay in presence of 50 % serum
Plasmodium falciparum [3] = assay: Antimalarial activity against chloroquine-sensitive Plasmodium falciparum NF54 infected in RBC after 48 hrs by [3H]hypoxanthine incorporation assay in presence of 0.5 % albumax
Plasmodium falciparum [4] = assay: Antimalarial activity against chloroquine-sensitive Plasmodium falciparum NF54 infected in RBC after 24 hrs by [3H]hypoxanthine incorporation assay in presence of 0.5 % albumax

Row | SMILES | IC50 (Plasmodium falciparum [1]) [µM] | IC50 (Plasmodium falciparum [2]) [µM] | IC50 (Plasmodium falciparum [3]) [µM] | IC50 (Plasmodium falciparum [4]) [µM]
1 | Cn1cnc(C(=O)N[C@@H](Cc2ccccc2)[C@H](O)CNC(C)(C)c2ccccc2)c1 | > 0.5 | – | – | –
2 | CCCN(CCC)C(=O)c1cccc(C(=O)N[C@@H](Cc2ccccc2)[C@H](O)CNC(C)(C)c2ccc3ccccc3c2)c1 | 0.045 | 0.143 | – | –
3 | CCCN(CCC)C(=O)c1cccc(C(=O)N[C@@H](Cc2ccccc2)[C@H](O)CNC(C)(C)c2cccc(OC)c2)c1 | < 0.0078 | 0.025 | – | –
4 | CC(C)(NC[C@@H](O)[C@H](Cc1ccccc1)NC(=O)c1cccc2ncccc12)c1ccccc1 | > 0.5 | – | – | –
5 | CCCN(CCC)C(=O)c1cccc(C(=O)N[C@@H](Cc2ccccc2)[C@H](O)CNC2(c3ccccc3)CC2)c1 | 0.116 | 0.435 | – | –
6 | Cc1cc(C(=O)N[C@@H](Cc2ccccc2)[C@H](O)CNC(C)(C)c2ccccc2)nn1C | > 0.5 | – | – | –
7 | CC(C)(NC[C@@H](O)[C@H](Cc1ccccc1)NC(=O)c1ccc(Cl)cc1)c1ccccc1 | 0.349 | – | – | –
8 | CN1CCN(c2ccc(C(=O)N[C@@H](Cc3ccccc3)[C@H](O)CNCc3ccc(O)c(CN4CCCC4)c3)cc2)CC1 | > 0.5 | 0.295 | > 0.5 | > 0.5
9 | CCCN(CCC)C(=O)c1cccc(C(=O)N[C@@H](Cc2ccccc2)[C@H](O)CN[C@H](C)C2CCCCC2)c1 | 0.011 | 0.048 | – | –
10 | C[C@@H](NC[C@@H](O)[C@H](Cc1ccccc1)NC(=O)c1ccc(O)c(CN2CCCC2)c1)c1ccccc1 | 0.261 | 0.386 | – | –
11 | CCCN(CCC)C(=O)c1cccc(C(=O)N[C@@H](Cc2ccccc2)[C@H](O)CNC(C)(C)c2cccc(F)c2)c1 | 0.0096 | 0.05 | – | –
12 | CCN(CC)Cc1ccc(Nc2ccc(C(=O)N[C@@H](Cc3ccccc3)[C@H](O)CN[C@H](C)c3ccccc3)cc2)cc1O | < 0.0078 | 0.009 | 0.015 | 0.065
13 | COCCCC(=O)N[C@@H](Cc1ccccc1)[C@H](O)CNC(C)(C)c1ccccc1 | > 0.5 | – | – | –
14 | CCCN(CCC)C(=O)c1cccc(C(=O)N[C@@H](Cc2ccccc2)[C@H](O)CNC(C)(C)c2ccccc2)c1 | 0.0076 | 0.04 | – | –
15 | CCCN(CCC)C(=O)c1cccc(C(=O)N[C@@H](Cc2ccccc2)[C@H](O)CNC(C)(C)C)c1 | 0.024 | 0.066 | – | –
16 | CCCN(CCC)C(=O)c1cccc(C(=O)N[C@@H](Cc2ccccc2)[C@H](O)CNC(C)(C)c2ccccc2F)c1 | 0.021 | 0.142 | – | –
17 | CCCN(CCC)C(=O)c1cccc(C(=O)N[C@@H](Cc2ccccc2)[C@H](O)CNCCCc2ccccc2)c1 | 0.043 | 0.126 | – | –

Row | SMILES | IC50 (Plasmodium falciparum [1]) [µM] | IC50 (Plasmodium falciparum [2]) [µM] | IC50 (Plasmodium falciparum [3]) [µM] | IC50 (Plasmodium falciparum [4]) [µM]
18 | CC1CN(c2ccc(C(=O)N[C@@H](Cc3ccccc3)[C@H](O)CN[C@H](C)c3ccccc3)cc2)CCN1 (some centres not stated) | 0.19 | 0.3 | – | –
19 | C[C@@H](NC[C@@H](O)[C@H](Cc1ccccc1)NC(=O)c1ccc(N2CCN(Cc3ccccc3)CC2)cc1)c1ccccc1 | 0.021 | 0.039 | – | –
20 | CCCN(CCC)Cc1cc(C(C)NC[C@@H](O)[C@H](Cc2ccccc2)NC(=O)c2ccc(N3CCN(C)CC3)cc2)ccc1O (some centres not stated) | 0.089 | 0.062 | 0.075 | 0.09
21 | CN1CCCc2cc(C(=O)N[C@@H](Cc3ccccc3)[C@H](O)CNC(C)(C)c3ccccc3)ccc21 | > 0.5 | – | – | –
22 | Cn1cc(C(=O)N[C@@H](Cc2ccccc2)[C@H](O)CNC(C)(C)c2ccccc2)c2ccccc21 | > 0.5 | – | – | –
23 | CCCN(CCC)C(=O)c1cccc(C(=O)N[C@@H](Cc2ccccc2)[C@@H](O)CNCCCc2ccccc2)c1 | > 0.5 | > 0.5 | – | –
24 | CCCN(CCC)C(=O)c1cccc(C(=O)N[C@@H](Cc2ccccc2)[C@H](O)CN[C@@H](C)c2ccccc2)c1 | 0.021 | – | – | –
25 | COc1cccc(C(=O)N[C@@H](Cc2ccccc2)[C@H](O)CNC(C)(C)c2ccccc2)c1 | 0.349 | – | – | –
26 | CC(=O)Nc1cccc(C(=O)N[C@@H](Cc2ccccc2)[C@H](O)CNC(C)(C)c2ccccc2)c1 | 0.044 | – | – | –
27 | CCCN(CCC)C(=O)c1cccc(C(=O)N[C@@H](Cc2ccccc2)[C@H](O)CNC2CCCCC2)c1 | 0.014 | 0.028 | – | –
28 | CC(C)(NC[C@@H](O)[C@H](Cc1ccccc1)NC(=O)c1ccc2cc[nH]c2c1)c1ccccc1 | 0.146 | – | – | –
29 | CC(C)(C)c1ccc(/C=C/C(=O)N[C@@H](Cc2ccccc2)[C@H](O)CNC(C)(C)c2ccccc2)cc1 | 0.444 | – | – | –
30 | C[C@@H](NC[C@@H](O)[C@H](Cc1ccccc1)NC(=O)c1cccc(C(=O)N2CCCC2)c1)c1ccccc1 | 0.0049 | 0.0093 | – | –
31 | CC(=O)N1CCN(c2ccc(C(=O)N[C@@H](Cc3ccccc3)[C@H](O)CNC(C)(C)c3ccccc3)cc2)CC1 | 0.162 | – | – | –
32 | CC(C)(NC[C@@H](O)[C@H](Cc1ccccc1)NC(=O)Cc1cccc2ccccc12)c1ccccc1 | > 0.5 | – | – | –
33 | CCCN(CCC)C(=O)c1cccc(C(=O)N[C@@H](Cc2ccccc2)[C@H](O)CN2CCN(Cc3ccccc3)CC2)c1 | > 0.5 | – | – | –

Reference: ChEMBL document CHEMBL2331413, “Novel in vivo active anti-malarials based on a hydroxy-ethyl-amine scaffold” (Bioorg Med Chem Lett, 2013)
